{"source": "paper doi:10.1101/2025.04.23.650324v1", "about": "(biorxiv, 2025)", "assay_in_all_cases": "microbe, parasite or virus in culture", "key": {"[1]": {"tested_on": "Klebsiella pneumoniae Kp12", "conditions": "KP12, 18 h, read-out: ENOblock MIC (mg/L)"}, "[2]": {"tested_on": "Klebsiella pneumoniae Kp15", "conditions": "KP15, 18 h, read-out: ENOblock MIC (mg/L)"}, "[3]": {"tested_on": "Klebsiella pneumoniae Kp11", "conditions": "KP11, 18 h, read-out: ENOblock MIC (mg/L)"}, "[4]": {"tested_on": "Klebsiella pneumoniae Kp13", "conditions": "KP13, 18 h, read-out: ENOblock MIC (mg/L)"}, "[5]": {"tested_on": "Klebsiella pneumoniae Kp10", "conditions": "KP10, 18 h, read-out: ENOblock MIC (mg/L)"}, "[6]": {"tested_on": "Klebsiella pneumoniae Kp8", "conditions": "KP8, 18 h, read-out: ENOblock MIC (mg/L)"}, "[7]": {"tested_on": "Klebsiella pneumoniae Kp6", "conditions": "KP6, 18 h, read-out: ENOblock MIC (mg/L)"}, "[8]": {"tested_on": "Klebsiella pneumoniae Kp7", "conditions": "KP7, 18 h, read-out: ENOblock MIC (mg/L)"}, "[9]": {"tested_on": "Klebsiella pneumoniae Kp9", "conditions": "KP9, 18 h, read-out: ENOblock MIC (mg/L)"}, "[10]": {"tested_on": "Klebsiella pneumoniae Kp14", "conditions": "KP14, 18 h, read-out: ENOblock MIC (mg/L)"}, "[11]": {"tested_on": "Acinetobacter baumannii #14", "conditions": "18 h, read-out: ENOblock MIC (mg/L)"}, "[12]": {"tested_on": "Acinetobacter baumannii #17", "conditions": "18 h, read-out: ENOblock MIC (mg/L)"}, "[13]": {"tested_on": "Acinetobacter baumannii #20", "conditions": "18 h, read-out: ENOblock MIC (mg/L)"}, "[14]": {"tested_on": "Acinetobacter baumannii #10", "conditions": "18 h, read-out: ENOblock MIC (mg/L)"}, "[15]": {"tested_on": "Acinetobacter baumannii #21", "conditions": "18 h, read-out: ENOblock MIC (mg/L)"}, "[16]": {"tested_on": "Acinetobacter baumannii #19", "conditions": "18 h, read-out: ENOblock MIC (mg/L)"}, "[17]": {"tested_on": "Acinetobacter baumannii #11", "conditions": "18 h, read-out: ENOblock MIC (mg/L)"}, "[18]": {"tested_on": "Acinetobacter baumannii #1", "conditions": "18 h, read-out: ENOblock MIC (mg/L)"}, "[19]": {"tested_on": "Acinetobacter baumannii #22", "conditions": "18 h, read-out: ENOblock MIC (mg/L)"}, "[20]": {"tested_on": "Acinetobacter baumannii #16", "conditions": "18 h, read-out: ENOblock MIC (mg/L)"}, "Escherichia coli CRA57": {"tested_on": "Escherichia coli CRA57", "conditions": "CRA57, 18 h, read-out: ENOblock MIC (mg/L)"}, "Escherichia coli CRA8": {"tested_on": "Escherichia coli CRA8", "conditions": "CRA8, 18 h, read-out: ENOblock MIC (mg/L)"}, "Escherichia coli CRA17": {"tested_on": "Escherichia coli CRA17", "conditions": "CRA17, 18 h, read-out: ENOblock MIC (mg/L)"}, "Escherichia coli R6": {"tested_on": "Escherichia coli R6", "conditions": "R6, 18 h, read-out: ENOblock MIC (mg/L)"}, "Escherichia coli CRA7": {"tested_on": "Escherichia coli CRA7", "conditions": "CRA7, 18 h, read-out: ENOblock MIC (mg/L)"}, "Escherichia coli CRA32": {"tested_on": "Escherichia coli CRA32", "conditions": "CRA32, 18 h, read-out: ENOblock MIC (mg/L)"}, "Escherichia coli CRA20": {"tested_on": "Escherichia coli CRA20", "conditions": "CRA20, 18 h, read-out: ENOblock MIC (mg/L)"}, "Escherichia coli R2": {"tested_on": "Escherichia coli R2", "conditions": "R2, 18 h, read-out: ENOblock MIC (mg/L)"}, "Escherichia coli R5": {"tested_on": "Escherichia coli R5", "conditions": "R5, 18 h, read-out: ENOblock MIC (mg/L)"}, "Escherichia coli CRA5": {"tested_on": "Escherichia coli CRA5", "conditions": "CRA5, 18 h, read-out: ENOblock MIC (mg/L)"}}}
{"compound": "NCCOCCOCCNC(=O)Cc1ccc(Nc2nc(NCc3ccc(F)cc3)nc(NCC3CCCCC3)n2)cc1", "note": "[ENOblock]", "values": [{"measurement": "MIC", "setting": "[1]", "value": 64, "unit": "mg/L"}, {"measurement": "MIC", "setting": "[2]", "value": 64, "unit": "mg/L"}, {"measurement": "MIC", "setting": "[3]", "value": 16, "unit": "mg/L"}, {"measurement": "MIC", "setting": "[4]", "value": 64, "unit": "mg/L"}, {"measurement": "MIC", "setting": "[5]", "value": 32, "unit": "mg/L"}, {"measurement": "MIC", "setting": "[6]", "value": 64, "unit": "mg/L"}, {"measurement": "MIC", "setting": "[7]", "value": 32, "unit": "mg/L"}, {"measurement": "MIC", "setting": "[8]", "value": 16, "unit": "mg/L"}, {"measurement": "MIC", "setting": "[9]", "value": 64, "unit": "mg/L"}, {"measurement": "MIC", "setting": "[10]", "value": 64, "unit": "mg/L"}, {"measurement": "MIC", "setting": "[11]", "value": 16, "unit": "mg/L"}, {"measurement": "MIC", "setting": "[12]", "value": 16, "unit": "mg/L"}, {"measurement": "MIC", "setting": "[13]", "value": 8, "unit": "mg/L"}, {"measurement": "MIC", "setting": "[14]", "value": 16, "unit": "mg/L"}, {"measurement": "MIC", "setting": "[15]", "value": 8, "unit": "mg/L"}, {"measurement": "MIC", "setting": "[16]", "value": 32, "unit": "mg/L"}, {"measurement": "MIC", "setting": "[17]", "value": 16, "unit": "mg/L"}, {"measurement": "MIC", "setting": "[18]", "value": 16, "unit": "mg/L"}, {"measurement": "MIC", "setting": "[19]", "value": 16, "unit": "mg/L"}, {"measurement": "MIC", "setting": "[20]", "value": 16, "unit": "mg/L"}, {"measurement": "MIC", "setting": "Escherichia coli CRA57", "value": 16, "unit": "mg/L"}, {"measurement": "MIC", "setting": "Escherichia coli CRA8", "value": 16, "unit": "mg/L"}, {"measurement": "MIC", "setting": "Escherichia coli CRA17", "value": 32, "unit": "mg/L"}, {"measurement": "MIC", "setting": "Escherichia coli R6", "value": 16, "unit": "mg/L"}, {"measurement": "MIC", "setting": "Escherichia coli CRA7", "value": 16, "unit": "mg/L"}, {"measurement": "MIC", "setting": "Escherichia coli CRA32", "value": 8, "unit": "mg/L"}, {"measurement": "MIC", "setting": "Escherichia coli CRA20", "value": 32, "unit": "mg/L"}, {"measurement": "MIC", "setting": "Escherichia coli R2", "value": 32, "unit": "mg/L"}, {"measurement": "MIC", "setting": "Escherichia coli R5", "value": 32, "unit": "mg/L"}, {"measurement": "MIC", "setting": "Escherichia coli CRA5", "value": 16, "unit": "mg/L"}]}
